Assay results as given in patent US20260231994A1, “TASTE-ENHANCING COMPOSITION, METHOD FOR PRODUCING SAME, FOOD PRODUCT, AND METHOD FOR ENHANCING TASTE OF FOOD PRODUCT” (HOUSE FOODS GROUP INC., priority 2023, published 2026).

Key:
Type in all cases: in vivo
[1] = Experiment 6 sensory evaluation of cyclic dipeptides, “boosting of last flavor (aftertaste)”
In short: (§1)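 Reduced-sodium curry roux (44 g in 300 g hot water) was spiked with cyclic dipeptide solutions matching heat-treated coriander or paprika levels, at 0.5% or 1.0% (w/w) final. Three evaluators scored each sample against unspiked reduced-sodium and common roux. Mean scores were graded F to AA.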

[2] = Experiment 6 sensory evaluation of cyclic dipeptides, “middle fullness (enhanced thickness)”
In short: as §1

[3] = Experiment 6 sensory evaluation of cyclic dipeptides, “top sharp saltiness”
In short: as §1

[4] = Additive amount coriander 0.5%, reduced-sodium curry roux
[5] = heat-treated coriander equivalent aqueous solution of cyclic dipeptide, final 1.0% (w/w) in reduced-sodium curry roux dispersion
[6] = heat-treated coriander equivalent aqueous solution of cyclic dipeptide, final 1.0% (w/w) in reduced-sodium curry roux dispersion, 3 evaluators
[7] = Additive amount coriander 0.5% (heat-treated coriander equivalent aqueous solution, final 0.5% (w/w)), reduced-sodium curry roux
[8] = Additive amount paprika 0.5%, reduced-sodium curry roux
[9] = heat-treated paprika equivalent aqueous solution of cyclic dipeptide, final 1.0% (w/w) in reduced-sodium curry roux dispersion
[10] = heat-treated paprika equivalent aqueous solution of cyclic dipeptide, final 1.0% (w/w) in reduced-sodium curry roux dispersion, 3 evaluators
[11] = Additive amount paprika 0.5% (heat-treated paprika equivalent aqueous solution, final 0.5% (w/w)), reduced-sodium curry roux

Substance	Bosting of last flavor Average [1, 4] [points]	Bosting of last flavor Evaluation [1, 4]	Bosting of last flavor Evaluation [1, 5]	Bosting of last flavor Average [1, 6] [points]	Middle fullness Average [2, 4] [points]	Middle fullness Evaluation [2, 4]	Middle fullness Evaluation [2, 5]	Middle fullness Average [2, 6] [points]	Top sharp saltiness Average [3, 7] [points]	Top sharp saltiness Evaluation [3, 4]	Top sharp saltiness Evaluation [3, 5]	Top sharp saltiness Average [3, 6] [points]	Bosting of last flavor Average [1, 8] [points]	Bosting of last flavor Evaluation [1, 8]	Bosting of last flavor Evaluation [1, 9]	Bosting of last flavor Average [1, 10] [points]	Middle fullness Average [2, 8] [points]	Middle fullness Evaluation [2, 8]	Middle fullness Evaluation [2, 9]	Middle fullness Average [2, 10] [points]	further results
cyclic (Ala-His) [Coriander ID 10]	3.3	AA (“AA” when it was 3.0 or higher)	AA (“AA” when it was 3.0 or higher)	3.7	3.2	AA (“AA” when it was 3.0 or higher)	AA (“AA” when it was 3.0 or higher)	3.3	2.7	A (“A” when it was 2.6 or higher and 2.9 or lower)	B (“B” when it was 2.0 or higher and 2.5 or lower)	2.3									
cyclic (Tyr-Asp)													2.1	B (“B” when it was 2.0 or higher and 2.5 or lower)	A (“A” when it was 2.6 or higher and 2.9 or lower)	2.8	2.1	B (“B” when it was 2.0 or higher and 2.5 or lower)	A (“A” when it was 2.6 or higher and 2.9 or lower)	2.8	Top sharp saltiness Average [3, 11]: 2.1 points; Top sharp saltiness Evaluation [3, 8]: B (“B” when it was 2.0 or higher and 2.5 or lower); Top sharp saltiness Evaluation [3, 9]: B (“B” when it was 2.0 or higher and 2.5 or lower); Top sharp saltiness Average [3, 10]: 2.5 points
cyclic (Gly-His) [Coriander ID 4]	3.5	AA (“AA” when it was 3.0 or higher)	B (“B” when it was 2.0 or higher and 2.5 or lower)	2.5	3.3	AA (“AA” when it was 3.0 or higher)	A (“A” when it was 2.6 or higher and 2.9 or lower)	2.7	2.8	A (“A” when it was 2.6 or higher and 2.9 or lower)	B (“B” when it was 2.0 or higher and 2.5 or lower)	2.3									
cyclic (Gly-Ser) [Coriander ID 5]	2.2	B (“B” when it was 2.0 or higher and 2.5 or lower)	B (“B” when it was 2.0 or higher and 2.5 or lower)	2.3	2.0	B (“B” when it was 2.0 or higher and 2.5 or lower)	B (“B” when it was 2.0 or higher and 2.5 or lower)	2.3	1.7	C (“C” when it was 1.1 or higher and 1.9 or lower)	C (“C” when it was 1.1 or higher and 1.9 or lower)	1.8									
cyclic (Phe-Tyr) [Coriander ID 41]													2.0	B (“B” when it was 2.0 or higher and 2.5 or lower)	A (“A” when it was 2.6 or higher and 2.9 or lower)	2.8	2.0	B (“B” when it was 2.0 or higher and 2.5 or lower)	AA (“AA” when it was 3.0 or higher)	3.0	Top sharp saltiness Average [3, 11]: 1.8 points; Top sharp saltiness Evaluation [3, 8]: C (“C” when it was 1.1 or higher and 1.9 or lower); Top sharp saltiness Evaluation [3, 9]: A (“A” when it was 2.6 or higher and 2.9 or lower); Top sharp saltiness Average [3, 10]: 2.7 points
cyclic (Glu-Asp) [Coriander ID 12]													2.3	B (“B” when it was 2.0 or higher and 2.5 or lower)	B (“B” when it was 2.0 or higher and 2.5 or lower)	2.0	2.7	A (“A” when it was 2.6 or higher and 2.9 or lower)	B (“B” when it was 2.0 or higher and 2.5 or lower)	2.0	Top sharp saltiness Average [3, 11]: 1.8 points; Top sharp saltiness Evaluation [3, 8]: C (“C” when it was 1.1 or higher and 1.9 or lower); Top sharp saltiness Evaluation [3, 9]: C (“C” when it was 1.1 or higher and 1.9 or lower); Top sharp saltiness Average [3, 10]: 1.5 points
cyclic (Pro-Leu/Ile) [Coriander ID 39]	2.2	B (“B” when it was 2.0 or higher and 2.5 or lower)	C (“C” when it was 1.1 or higher and 1.9 or lower)	1.7	1.8	C (“C” when it was 1.1 or higher and 1.9 or lower)	C (“C” when it was 1.1 or higher and 1.9 or lower)	1.8	1.5	C (“C” when it was 1.1 or higher and 1.9 or lower)	C (“C” when it was 1.1 or higher and 1.9 or lower)	1.8									
cyclic (Gly-Phe) [Coriander ID 28]													3.2	AA (“AA” when it was 3.0 or higher)	B (“B” when it was 2.0 or higher and 2.5 or lower)	2.5	3.2	AA (“AA” when it was 3.0 or higher)	B (“B” when it was 2.0 or higher and 2.5 or lower)	2.5	Top sharp saltiness Average [3, 11]: 2.7 points; Top sharp saltiness Evaluation [3, 8]: A (“A” when it was 2.6 or higher and 2.9 or lower); Top sharp saltiness Evaluation [3, 9]: B (“B” when it was 2.0 or higher and 2.5 or lower); Top sharp saltiness Average [3, 10]: 2.3 points
cyclic (Ala-Asn) [Coriander ID 56]	2.3	B (“B” when it was 2.0 or higher and 2.5 or lower)	B (“B” when it was 2.0 or higher and 2.5 or lower)	2.5	2.3	B (“B” when it was 2.0 or higher and 2.5 or lower)	A (“A” when it was 2.6 or higher and 2.9 or lower)	2.7	2.3	B (“B” when it was 2.0 or higher and 2.5 or lower)	B (“B” when it was 2.0 or higher and 2.5 or lower)	2.0									
cyclic (Phe-Ser)													3.0	AA (“AA” when it was 3.0 or higher)	B (“B” when it was 2.0 or higher and 2.5 or lower)	2.3	2.8	A (“A” when it was 2.6 or higher and 2.9 or lower)	B (“B” when it was 2.0 or higher and 2.5 or lower)	2.3	Top sharp saltiness Average [3, 11]: 2.3 points; Top sharp saltiness Evaluation [3, 8]: B (“B” when it was 2.0 or higher and 2.5 or lower); Top sharp saltiness Evaluation [3, 9]: B (“B” when it was 2.0 or higher and 2.5 or lower); Top sharp saltiness Average [3, 10]: 2.2 points
cyclic (Glu-His) [Coriander ID 6]	3.0	AA (“AA” when it was 3.0 or higher)	AA (“AA” when it was 3.0 or higher)	3.7	3.3	AA (“AA” when it was 3.0 or higher)	AA (“AA” when it was 3.0 or higher)	3.8	3.2	AA (“AA” when it was 3.0 or higher)	AA (“AA” when it was 3.0 or higher)	4.0									
cyclic (Gly-Gly) [Coriander ID 54]	3.0	AA (“AA” when it was 3.0 or higher)	B (“B” when it was 2.0 or higher and 2.5 or lower)	2.3	2.5	B (“B” when it was 2.0 or higher and 2.5 or lower)	A (“A” when it was 2.6 or higher and 2.9 or lower)	2.7	2.2	B (“B” when it was 2.0 or higher and 2.5 or lower)	A (“A” when it was 2.6 or higher and 2.9 or lower)	2.8									
